From patent US9573964B2, “Oxygen linked pyrimidine derivatives” (CTI BIOPHARMA CORP., priority 2005, dated 2017)

What was measured:
[1] = system: HL60 (acute myeloid leukemia cell line); assay: Cell-based proliferation assay for GI50, HL60; conditions: Homo sapiens, HL-60; HL60 cells, 96 h treatment
Protocol: (§1) Human cancer cell lines HL60 (acute myeloid leukemia cell line), Colo205 (colon adenocarcinoma cell line), HEL92.1.7 (erythroleukemia cell line) and MV4-11 (acute myeloid leukemia cell line) were obtained from ATCC. They were cultivated in the media according to the ATCC work instructions. Colo205 cells were seeded in 96-wells plate at 5000 cells per well. HEL92.1.7 and MV4-11 cells were seeded at 6000 cells per well while HL60 cells were seeded at 8000 cells per well in 96 well plate. The plates were incubated at 37° C., 5% CO2, for 24 h. Cells were treated with compounds at various concentrations for 96 h. Cell growth was then monitored using Celltiter96 Aqueous One Solution Cell Proliferation Assay from Promega (Madison Wis.). Dose response curves were plotted to determine GI50 values for the compounds using XL-fit (ID Business Solution, Emeryville, Calif.).

CDK2/CyclinA = target: T1, CDK2/CyclinA (Homo sapiens, UniProt P24941); assay: In vitro kinase activity assay (PKLight), CDK2/Cyclin A; format: biochemical; conditions: 0.5 μM ATP
T1 construct: purchased Invitrogen PV3267
Protocol: (§2) The recombinant enzymes (CDK2/CyclinA, FLT3, JAK2 and JAK2 V617F) were purchased from Invitrogen (Cat #PV3267, 3182, 4210 and 4347 respectively). All assays were carried out in 384-well white microtiter plates using the PKLight assay system from Cambrex (East Rutherford, N.J.). This assay platform is essentially a luminometric assay for the detection of ATP in the reaction using a luciferase-coupled reaction. For CDK2/Cyclin A assay, the reaction mixture consisted of the following components in 25 μL assay buffer (50 mM Hepes pH 7.5, 10 mM MgCl2, 5 mM MnCl2, 5 mM BGP, 1 mM DTT, 0.1 mM sodium orthovanadate), 1.4 μg/mL of CDK2/Cyclin A complex, 0.5 μM of RbING substrate (Invitrogen, Cat #PV2939) and 0.5 μM of ATP. The compounds were tested at 8 concentrations prepared from 4-fold serial dilution starting at 10 μM. The reaction was incubated at room temperature for 2 hr. 13 μL of PKLight ATP detection reagent was added and the reaction was incubated for 10 min. Luminescence signals were detected on a multi-label plate reader (Victor^2 V 1420, Perkin-Elmer). The other kinase assays were identical except for the following differences in reagents. For FLT3 assays, the reaction contained 2.0 μg/mL FLT3 enzyme, 5 μM of poly(Glu,Tyr) substrate (Sigma, Cat #P0275) and 4 μM of ATP. For JAK2 assays, the reaction contained 0.6 μg/mL of JAK2 enzyme, 2 μM of poly(Glu,Ala,Tyr) substrate (Sigma, Cat #P3899) and 0.2 μM of ATP. For JAK2 V617F mutant assays, the reaction contained 8.0 μg/mL of JAK2 mutant enzyme, 2 μM of poly(Glu,Ala,Tyr) substrate (Sigma, Cat #P3899) and 0.2 μM of ATP. The analytical software, Prism 4.0 (GraphPad Software Pte Ltd) was used to generate IC50 values from the data.

[2] = system: HEL92.1.7 (erythroleukemia cell line); assay: Cell-based proliferation assay for GI50, HEL92.1.7; conditions: Homo sapiens, HEL 92.1.7; HEL92.1.7 cells, 96 h treatment
Protocol: as §1

FLT3 = target: T2, FLT3 (Homo sapiens, UniProt P36888); assay: In vitro kinase activity assay (PKLight), FLT3; format: biochemical
T2 construct: purchased Invitrogen PV3182
T2 sequence (P36888 27-993): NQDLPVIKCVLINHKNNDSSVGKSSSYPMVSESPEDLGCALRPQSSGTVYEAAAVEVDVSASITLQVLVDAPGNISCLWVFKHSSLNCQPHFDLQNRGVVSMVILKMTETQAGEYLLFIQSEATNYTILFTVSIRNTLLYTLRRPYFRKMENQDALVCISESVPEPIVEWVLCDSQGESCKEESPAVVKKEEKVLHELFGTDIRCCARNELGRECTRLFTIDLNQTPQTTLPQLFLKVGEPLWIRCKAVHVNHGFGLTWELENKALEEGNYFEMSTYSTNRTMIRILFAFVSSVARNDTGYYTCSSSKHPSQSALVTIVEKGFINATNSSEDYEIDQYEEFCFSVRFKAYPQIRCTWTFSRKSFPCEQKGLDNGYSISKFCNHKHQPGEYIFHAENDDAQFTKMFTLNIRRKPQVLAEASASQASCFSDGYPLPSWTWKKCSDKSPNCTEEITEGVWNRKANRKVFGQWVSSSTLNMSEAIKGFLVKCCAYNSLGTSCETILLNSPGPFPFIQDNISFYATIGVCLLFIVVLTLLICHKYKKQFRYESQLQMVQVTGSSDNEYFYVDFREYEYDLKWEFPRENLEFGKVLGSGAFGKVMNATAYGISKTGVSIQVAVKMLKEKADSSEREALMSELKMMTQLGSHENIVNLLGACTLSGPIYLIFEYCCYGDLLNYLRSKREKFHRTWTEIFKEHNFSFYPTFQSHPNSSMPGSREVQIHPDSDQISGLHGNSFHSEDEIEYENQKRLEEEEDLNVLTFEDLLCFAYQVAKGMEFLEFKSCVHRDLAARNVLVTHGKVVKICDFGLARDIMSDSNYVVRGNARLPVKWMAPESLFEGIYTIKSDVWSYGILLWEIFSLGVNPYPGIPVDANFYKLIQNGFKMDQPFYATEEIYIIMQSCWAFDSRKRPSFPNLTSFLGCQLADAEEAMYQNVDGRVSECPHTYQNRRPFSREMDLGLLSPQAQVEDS
Protocol: as §2, with “All” for “The recombinant enzymes (CDK2/CyclinA, FLT3, JAK2 and JAK2 V617F) were purchased from Invitrogen (Cat #PV3267, 3182, 4210 and 4347 respectively). All”, “For JAK2 V617F mutant assays, the reaction contained 8.0 μg/mL of JAK2 mutant enzyme, 2 μM of poly(Glu,Ala,Tyr) substrate (Sigma, Cat #P3899) and 0.2 μM of ATP.” left out

[3] = system: MV4-11 (acute myeloid leukemia cell line); assay: Cell-based proliferation assay for GI50, MV4-11; conditions: Homo sapiens; MV4-11 cells, 96 h treatment
Protocol: as §1

JAK2 = target: T3, JAK2 (Homo sapiens, UniProt O60674); assay: In vitro kinase activity assay (PKLight), JAK2; format: biochemical
T3 construct: purchased Invitrogen PV4210
T3 sequence (O60674 whole entry): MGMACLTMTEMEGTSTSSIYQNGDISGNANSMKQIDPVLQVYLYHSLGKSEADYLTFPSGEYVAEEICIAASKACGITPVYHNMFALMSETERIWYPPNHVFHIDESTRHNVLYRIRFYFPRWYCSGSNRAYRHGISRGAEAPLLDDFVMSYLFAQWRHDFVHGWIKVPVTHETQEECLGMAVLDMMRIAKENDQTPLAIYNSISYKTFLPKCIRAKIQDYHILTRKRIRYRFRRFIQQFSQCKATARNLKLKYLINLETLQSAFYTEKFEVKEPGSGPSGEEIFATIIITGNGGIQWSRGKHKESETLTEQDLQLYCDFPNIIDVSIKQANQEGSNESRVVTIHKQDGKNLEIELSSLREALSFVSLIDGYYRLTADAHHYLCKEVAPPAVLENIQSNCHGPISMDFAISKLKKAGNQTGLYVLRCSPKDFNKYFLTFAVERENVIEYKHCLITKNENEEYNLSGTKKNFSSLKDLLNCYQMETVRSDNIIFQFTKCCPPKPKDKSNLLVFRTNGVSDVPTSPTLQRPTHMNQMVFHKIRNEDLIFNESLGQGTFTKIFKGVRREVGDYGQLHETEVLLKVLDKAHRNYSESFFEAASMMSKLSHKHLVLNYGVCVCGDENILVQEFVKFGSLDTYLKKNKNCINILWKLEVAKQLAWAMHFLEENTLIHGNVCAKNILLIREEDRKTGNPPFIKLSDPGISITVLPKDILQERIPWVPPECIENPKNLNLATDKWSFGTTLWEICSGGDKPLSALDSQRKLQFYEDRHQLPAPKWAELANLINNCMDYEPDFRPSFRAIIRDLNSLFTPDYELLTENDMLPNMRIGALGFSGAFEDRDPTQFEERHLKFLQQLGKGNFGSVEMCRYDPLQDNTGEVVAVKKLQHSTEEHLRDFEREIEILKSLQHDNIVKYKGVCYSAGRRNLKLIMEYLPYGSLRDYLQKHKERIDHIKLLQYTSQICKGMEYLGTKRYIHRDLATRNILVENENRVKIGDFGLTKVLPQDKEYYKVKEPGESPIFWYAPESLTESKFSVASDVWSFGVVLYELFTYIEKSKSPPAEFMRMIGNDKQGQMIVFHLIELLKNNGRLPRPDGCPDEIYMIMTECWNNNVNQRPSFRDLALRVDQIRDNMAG
Protocol: as §2, with “All” for “The recombinant enzymes (CDK2/CyclinA, FLT3, JAK2 and JAK2 V617F) were purchased from Invitrogen (Cat #PV3267, 3182, 4210 and 4347 respectively). All”, “For JAK2 V617F mutant assays, the reaction contained 8.0 μg/mL of JAK2 mutant enzyme, 2 μM of poly(Glu,Ala,Tyr) substrate (Sigma, Cat #P3899) and 0.2 μM of ATP.” left out

[4] = system: Colo205 (colon adenocarcinoma cell line); assay: Cell-based proliferation assay for GI50, Colo205; conditions: Homo sapiens, COLO 205; Colo205 cells, 96 h treatment
Protocol: as §1

JAK2 V617F = target: T4, JAK2 V617F (Homo sapiens, UniProt O60674, V617F); assay: In vitro kinase activity assay (PKLight), JAK2 V617F mutant; format: biochemical
T4 construct: purchased Invitrogen PV4347
T4 sequence (O60674 whole entry V617F): as the sequence (O60674 whole entry) above, with V617F counted along it
Protocol: as §2, with “All” for “The recombinant enzymes (CDK2/CyclinA, FLT3, JAK2 and JAK2 V617F) were purchased from Invitrogen (Cat #PV3267, 3182, 4210 and 4347 respectively). All”, “For JAK2 V617F mutant assays, the reaction contained 8.0 μg/mL of JAK2 mutant enzyme, 2 μM of poly(Glu,Ala,Tyr) substrate (Sigma, Cat #P3899) and 0.2 μM of ATP.” left out

Row | Compound | GI50 [1] [nM] | IC50 (CDK2/CyclinA) [nM] | GI50 [2] [nM] | IC50 (FLT3) [nM] | GI50 [3] [nM] | IC50 (JAK2) [nM] | GI50 [4] [nM] | IC50 (JAK2 V617F) [nM]
1 | C1=C2COC/C=C/COCc3cc(ccc3OCCN3CCCC3)Nc3nccc(n3)C(=C1)O2 [Compound 38] | ≤ 1000 | > 5000 | 1000 to 5000 | ≤ 1000 | ≤ 1000 | ≤ 1000 | – | –
2 | C1=C/COCc2cc(ccc2N2CCOCC2)Nc2nccc(n2)-c2cccc(c2)COC/1 [Compound 33] | 1000 to 5000 | > 5000 | 1000 to 5000 | ≤ 1000 | ≤ 1000 | ≤ 1000 | – | –
3 | COc1ccc2cc1COC/C=C/COc1cccc(c1)-c1ccnc(n1)N2 [Compound 6] | 1000 to 5000 | ≤ 1000 | – | ≤ 1000 | – | ≤ 1000 | 1000 to 5000 | –
4 | CCN(CC)CCOc1ccc2cc1COC/C=C/CCOc1cccc(c1)-c1nc(ncc1C)N2 [Compound 29] | ≤ 1000 | > 5000 | 1000 to 5000 | ≤ 1000 | ≤ 1000 | ≤ 1000 | – | ≤ 1000
5 | CCN(CC)CCOc1ccc2cc1COC/C=C/CCOc1cc(ccc1OC)-c1ccnc(n1)N2 [Compound 20] | 1000 to 5000 | > 5000 | > 5000 | ≤ 1000 | ≤ 1000 | ≤ 1000 | > 5000 | ≤ 1000
6 | CN1CCN(c2ccc3cc2COC/C=C/COCc2cccc(c2)-c2ccnc(n2)N3)CC1 [Compound 40] | ≤ 1000 | > 5000 | ≤ 1000 | ≤ 1000 | ≤ 1000 | ≤ 1000 | – | –
7 | COc1ccc2cc1COC/C=C\COc1cccc(c1)-c1ccnc(n1)N2 [Compound 7] | ≤ 1000 | > 5000 | > 5000 | ≤ 1000 | > 5000 | > 5000 | > 5000 | –
8 | Fc1cc2cc(c1)-c1ccnc(n1)Nc1ccc(OCCN3CCCC3)c(c1)COC/C=C/CCO2 [Compound 36] | ≤ 1000 | 1000 to 5000 | 1000 to 5000 | ≤ 1000 | ≤ 1000 | ≤ 1000 | – | –
9 | CCN(CC)CCOc1ccc2cc1COC/C=C/COCc1cccc(c1)-c1ccnc(n1)N2 [Compound 15] | ≤ 1000 | 1000 to 5000 | 1000 to 5000 | ≤ 1000 | ≤ 1000 | ≤ 1000 | 1000 to 5000 | ≤ 1000
10 | CCN(CC)CCOc1ccc2cc1COC/C=C/CCOc1cccc(c1)-c1ccnc(n1)N2 [Compound 19] | ≤ 1000 | > 5000 | ≤ 1000 | ≤ 1000 | ≤ 1000 | ≤ 1000 | ≤ 1000 | ≤ 1000

More lines, now with the values ahead:

Row | GI50 [1] [nM] | IC50 (CDK2/CyclinA) [nM] | GI50 [2] [nM] | IC50 (FLT3) [nM] | GI50 [3] [nM] | IC50 (JAK2) [nM] | GI50 [4] [nM] | IC50 (JAK2 V617F) [nM] | Compound
11 | ≤ 1000 | > 5000 | ≤ 1000 | ≤ 1000 | ≤ 1000 | ≤ 1000 | ≤ 1000 | – | C1=C2COC/C=C/COCc3cc(ccc3OCCN3CCCC3)Nc3nccc(n3)C(=C1)S2 [Compound 48]
12 | ≤ 1000 | 1000 to 5000 | 1000 to 5000 | – | ≤ 1000 | – | 1000 to 5000 | – | C1=C/COCc2cc(ccc2OCCN2CCCC2)Nc2nccc(n2)-c2cccc(c2)COC/1 [Compound 13]
13 | ≤ 1000 | > 5000 | ≤ 1000 | ≤ 1000 | ≤ 1000 | ≤ 1000 | – | – | C1=C/COCc2cc(ccc2OCCN2CCCC2)Nc2nccc(n2)-c2csc(c2)COC/1 [Compound 52]
14 | 1000 to 5000 | > 5000 | 1000 to 5000 | ≤ 1000 | ≤ 1000 | ≤ 1000 | – | – | C1=C/COCc2cc(ccc2OCCN2CCCC2)Nc2nccc(n2)-c2cc(co2)COC/1 [Compound 55]
15 | ≤ 1000 | 1000 to 5000 | 1000 to 5000 | ≤ 1000 | ≤ 1000 | ≤ 1000 | – | – | C1=C/COCc2cc(ccc2OCCN2CCCC2)Nc2nccc(n2)-c2cncc(c2)COC/1 [Compound 56]
16 | ≤ 1000 | 1000 to 5000 | 1000 to 5000 | ≤ 1000 | ≤ 1000 | ≤ 1000 | – | – | Fc1ccc2cc1COC/C=C/COCc1cc(ccc1OCCN1CCCC1)Nc1nccc-2n1 [Compound 46]
17 | ≤ 1000 | 1000 to 5000 | 1000 to 5000 | ≤ 1000 | ≤ 1000 | ≤ 1000 | – | – | COc1cc2cc(c1OCCN1CCCC1)COC/C=C/COCc1cccc(c1)-c1ccnc(n1)N2 [Compound 32]
18 | ≤ 1000 | > 5000 | 1000 to 5000 | ≤ 1000 | ≤ 1000 | ≤ 1000 | – | – | C1=C/COCc2cc(ccc2OCCN2CCCC2)Nc2nccc(n2)-c2coc(c2)COC/1 [Compound 50]
19 | ≤ 1000 | 1000 to 5000 | 1000 to 5000 | ≤ 1000 | ≤ 1000 | ≤ 1000 | – | – | c1cc2cc(c1)-c1ccnc(n1)Nc1ccc(OCCN3CCCC3)c(c1)COCC1CC1COC2 (stereo not shown) [Compound 53]
